In patent publication US20050158323A1, “Methods of killing tumor cells by targeting internal antigens exposed on apoptotic tumor cells” (Vaccinex, Inc., priority 2003, published 2005):
Where two headings read alike, the source gives them in different places. Blank lines part the entries; values can stand above or below the molecule they belong to.

How the values were obtained:
Colau.C35 tumor cells = experiment: Combination radioimmunotherapy and chemotherapy, second experiment (FIG. 6, Table 5); assay type: in vivo, Swiss nude mice
Procedure: Swiss nude mice were grafted with Colau.C35 cells on day 0. Chemotherapy: Cisplatin administered at 2 mg/kg i.v. on days 15 & 18; 5FU/LV administered at 180/120 mg/kg i.v. on day 18. Radioimmunotherapy: 300 μCi (˜50 μg) of ^131I-labeled murine 1B3 anti-C35 IgG was administered on day 21.
In a second experiment, the effect of combination radioimmunotherapy with ^131I labeled 1B3 anti-C35 monoclonal antibody and chemotherapy with cisplatin at 2 mg/kg on day 15 and 18 was tested in Swiss nude mice grafted with Colau.C35 tumor cells. Cispaltin was administered on days 15 and 18 following tumor graft. 300 μCi of ^131I-labeled 1B3 anti-C35 monoclonal antibody was administered on day 21. Tumor growth was followed for up to 10 weeks.
In the same experiment, separate groups of Swiss nude mice grafted with Colau.C35 tumor cells were treated with either 5-FluoroUracil (5FU) at 180 mg/kg, together with Leucovorin (LV) at 120 mg/kg or this same chemotherapy regimen administered on day 18 followed by 300 μCi of ^131I-labeled 1B3 anti-C35 monoclonal antibody administered on day 21.

[1] = tested on: rabbit anti-human C35 polyclonal antibody; experiment: ELISA of rabbit C35 immune serum on C35 derived 15 amino acid peptides; assay type: binding
Source text: Rabbit polyclonal antibodies were raised to recombinant C35 employing standard immunization methods well known in the art. Overlapping peptides 15 amino acids in length were synthesized corresponding to the 115 amino acid long C35 protein sequence beginning at each amino acid residue from 1 to 101. Peptides are named based on the C35 position of the amino terminus residue in each 15 amino acid peptide. In each peptide that overlapped the cysteine residues at positions 30, 33 and 112 of the natural C35 sequence, alanine was substituted for cysteine to avoid formation of disulfide crosslinked peptides.
Wells of 96 well Maxisorp microtiter plates were coated with either 2 μg C35 protein, or 14 μg or 40 μg of the indicated 15 amino acid peptide derived from the C35 protein sequence and binding of antibodies in the rabbit C35 immune serum was determined as described in detail below. Data in Table 11, below, is shown for the positive and negative controls and for those C35 derived peptides for which positive binding was detected. Variations in the level of peptide binding can be due to either differences in the concentration of specific antibody species, differences in antibody affinity or a combination thereof.
C35 peptide 15-mers in 100% DMSO, 10 mg/ml, were aliquotted into 1.5 ml tubes, 40 μg/tube, under sterile conditions, then speed vacuumed to remove DMSO. The peptides were resuspended in PBS, pH7.2, 1 ml/tube, mixed well and spun down. Each peptide concentration (“peptide solution”) was 40 μg/ml. Peptide solution should be stored at −20° C. until use. Once thawed, it should be kept at 4° C. for no more than 2 weeks.
For 14 μg/ml peptide coated plates, 65 μl PBS, pH7.2 per well was added, followed by 35 μl peptide solution per well (for a total volume of 100 μl/well), and mixed well. For 40 μg/ml peptide coated plates, 100 μl of peptide solution was placed directly on the plate, 100 μl/well. Control C35 protein was diluted into PBS, pH7.2 to 2 μg/ml and added to the plates, 100 μl/well. Coated plates were incubated at room temperature for 2 hours, then 4° C. overnight.
Each plate was washed 3 times on a plate washer. […] The secondary antibody, HRP (horseradish peroxidase conjugated goat anti-rabbit Fc polyclonal antibody from Zymed, was diluted at a 1:20,000 dilution into assay diluent and added to the plates, 100 μl/well. The plates were incubated at room temperature for 2 hours. Plates were washed 7 times on a plate washer. Substrate was added as per the kit manufacturers instructions and incubated at room temperature in the dark for 15 minutes. The reaction was stopped by adding 2N H2SO4, 100 μl/well. Absorbance at 450-570 nm was read immediately.

[2] = nude mice, cited from earlier work
21MT1 tumor cells = experiment: Taxol induced apoptosis and C35 exposure, annexin V/PI flow cytometry; assay type: cell-based, human; details: 0.5 uM, 24 hours
Procedure: 24 hours following treatment with 0.5 uM Taxol™, 21MT1 tumor cells were stained with annexin V-FITC, propidium iodide, and with either 100 ng anti-C35 antibody 1F2 (dark line) or isotype control (grey fill) antibody. Both antibodies were directly conjugated to Alexa-647. Histograms were gated on the cells undergoing apoptosis (annexinV positive/PI negative).
Antibodies were pre-incubated with PAB buffer (FIG. 3A), 100-fold molar excess recombinant C35 protein (FIG. 3B), or 100-fold molar excess β-galactosidase protein (FIG. 3C).

C35 protein [3] = target: T1, C35 protein (Homo sapiens, UniProt Q9BRT3); experiment: Competitive binding ELISA; details: 1F2 versus 1B3
T1 sequence (Q9BRT3 1-115): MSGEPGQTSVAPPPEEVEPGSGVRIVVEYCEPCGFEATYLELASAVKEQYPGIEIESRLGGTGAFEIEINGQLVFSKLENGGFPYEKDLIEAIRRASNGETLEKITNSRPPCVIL
Procedure: (§1) Hybridoma cell lines IF2.4.1 and 1B3.6.1, specific for C35 polypeptides, were prepared using hybridoma technology. (Kohler et al., Nature 256:495 (1975); Kohler et al., Eur. J. Immunol. 6:511 (1976); Kohler et al., Eur. J. Immunol. 6:292 (1976); Hammerling et al., in: Monoclonal Antibodies and T-Cell Hybridomas, Elsevier, N.Y., pp. 571-681 (1981)). Briefly, hybridoma cell lines were generated using standard PEG fusion to the non-secreting myeloma cell line NS-1 (P3/NS1/1-AG4-1, ATCC #TIB-18) of splenocytes from BALB/c mice immunized with syngeneic BCA34 fibroblast tumor cells transduced to overexpress C35. Following PEG fusion to NS-1, the hybridomas were grown in methylcellulose semi-solid media. Approximately 2 weeks later, hybridoma colonies were isolated into 96 well plates and individual supernatants were tested for reactivity with C35 by ELISA, Western blot, and immunohistochemistry. Positive hybridomas colonies were subcloned and screened for reactivity twice to ensure clonality. Antibodies were isolated from hybridoma supernatants by protein G affinity purification using standard methods. […] In addition, we have developed intracellular staining flow cytometry assays for quantitative analysis using antibodies from hybridoma cell line 1F2 conjugated to Alexa-647 flourochrome. Each of these antibodies is distinct, yet both are specific for C35 protein. […]

C35 protein [4] = target: T1, C35 protein; experiment: ELISA and Western Blot of hybridoma antibodies; assay type: binding; details: ELISA and Western Blot assays
Procedure: as §1

[5] = target: T2, recombinant human C35 (rhC35) (Homo sapiens, UniProt Q9BRT3); experiment: Epitope localization by Western blot of Lys-C digested rhC35; assay type: binding; details: native C35 sequence numbering; 1 μg/ml antibody
T2 construct: made in house; host or cells: E. coli
T2 sequence (Q9BRT3 1-115): T1 sequence (Q9BRT3 1-115)
Source text: (§2) To localize the epitope specificity of 1B3 and 1F2 antibodies, recombinant human C35 (rhC35) synthesized with a 6× His tag in E. coli was digested with Lys-C endoproteinase. This enzyme cuts after lysine (K) residues in the protein sequence. […] The full sequence of rhC35, including the amino terminal 6× His tag addition is shown. Amino acid positions are numbered relative to the amino terminal methionine (M) of the native human sequence. Note that digestion at the first and third lysine followed by negatively charged residues is inefficient and some longer combination fragments may be generated. Lys-C endoproteinase was added to purified rhC35 at a […] weight ratio and incubated for 18 hours at 37° C. in 25 mM Tris, pH 8.0. The digest was ethanol precipitated and resolubilized in reducing Tricine sample buffer. After heating 5 minutes at 100° C., samples were separated by electrophoresis on a 16% Tricine gel (Invitrogen). Peptides were transferred to PVDF membranes and the blots depicted in FIG. 10 were either stained with Coomassie blue (lanes 1-3 of both left and right panels) to detect all peptides or processed with one of the following: 1 μg/ml of the murine 1F2 anti-C35 antibody followed by alkaline phosphatase conjugated goat anti-mouse antibody (lane 4 of left panel); 1 μg/ml of the 1B3 anti-C35 immunoglobulin variable regions linked to human constant regions (MAb11) followed by alkaline phosphatase conjugated goat anti-human antibody (lane 5 of left panel); or anti-6× His tag mouse antibody (Amersham) followed by alkaline phosphatase conjugated goat anti-mouse antibody (lane 4 and 5 of right panel). BCIP/NBT substrate was added and developed to detect the secondary reagents. Molecular weight markers are indicated in the flanking lanes of both panels.
(§3) In FIG. 10, the indicated band A migrates at the position of undigested rhC35. Note that band B stains with 1F2 but not MAb11 (1B3) anti-C35 antibody while band C stains with neither 1F2 nor MAb11 (1B3) antibody. Since bands B and C both do stain with anti-6× His tag antibody to the 6× His tag at the amino terminus of rhC35, it may be concluded that both fragments lack C-terminal peptide fragments. […] This epitope is not required for staining with 1F2.

[6] = target: T3, recombinant human C35 (rhC35) (Homo sapiens, UniProt Q9BRT3); experiment: as above; assay type: binding; details: Western blot, 1 μg/ml antibody
T3 construct: made in house; host or cells: E. coli
T3 sequence (Q9BRT3 1-104): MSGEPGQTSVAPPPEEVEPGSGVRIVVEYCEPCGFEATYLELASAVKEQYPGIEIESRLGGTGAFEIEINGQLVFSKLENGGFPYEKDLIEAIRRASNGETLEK
Source text: as §2, §3

[7] = target: T4, recombinant human C35 (rhC35) (Homo sapiens, UniProt Q9BRT3); experiment: as above; assay type: binding; details: Western blot, 1 μg/ml antibody; remark: listed apart in the source
T4 construct: made in house; host or cells: E. coli
T4 sequence (Q9BRT3 1-52): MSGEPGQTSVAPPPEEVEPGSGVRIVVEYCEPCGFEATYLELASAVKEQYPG
Source text: as §2, §3

[8] = 14 μg/ml peptide coated plates, 100 ng/ml primary antibody (C35 protein control coated at 2 μg/ml)
[9] = 40 μg/ml peptide coated plates, 1 μg/ml primary antibody (C35 protein control coated at 2 μg/ml)
[10] = non-toxic dose at indicated schedule
[11] = literature values (footnotes 3-5)

Molecule: N.N.[Cl][Pt][Cl] [Cisplatin alone, cisplatin]
inhibition of Colau.C35 tumor growth (Colau.C35 tumor cells; cisplatin 2 mg/kg days 15 and 18, 5FU/LV 180/120 mg/kg day 18, 300 μCi ^131I-1B3 day 21): some inhibition
LCK = Log Cell Kill = TDD/3.32 (Colau.C35 tumor cells; same regimens): 0.20
T−C = difference in time for treated and control tumors to reach a given volume (Colau.C35 tumor cells; tumor volume 1200 mm^3, cisplatin 2 mg/kg days 15 and 18, 5FU/LV 180/120 mg/kg day 18, 300 μCi ^131I-1B3 day 21): 5 days
TDD = Tumor doubling delay = T−C/tumor volume doubling time of untreated (Colau.C35 tumor cells; tumor volume 1200 mm^3, same regimens): 0.66

Molecule: FPYEKDLLEAIRRAS [Peptide P83]
Absorbance @ 450-570 nm [1, 8]: 0.025
Absorbance @ 450-570 nm [1, 9]: 0.19

Molecule: O=P1(N(CCCl)CCCl)NCCCO1 (stereo not shown) [Cyclophosphamide]
Maximum Tolerated Dose [2, 10]: No toxicity^2

Molecule: CCC1=C[C@@H]2CN(C1)Cc1c([nH]c3ccccc13)[C@@](C(=O)OC)(c1cc3c(cc1OC)N(C)[C@H]1[C@@](O)(C(=O)OC)[C@H](OC(C)=O)[C@]4(CC)C=CCN5CC[C@]31[C@@H]54)C2 [Vinorelbine]
Maximum Tolerated Dose [2, 11]: 20 mg/kg

Molecule: Nc1ccn([C@@H]2O[C@H](CO)[C@@H](O)C2(F)F)c(=O)n1 [Gemcitabine]
Maximum Tolerated Dose [2, 10]: No toxicity^5

Molecule: CC(=O)O[C@H]1C(=O)[C@@]2(C)[C@H]([C@H](OC(=O)c3ccccc3)[C@]3(O)C[C@H](OC(=O)[C@H](O)[C@@H](NC(=O)c4ccccc4)c4ccccc4)C(C)=C1C3(C)C)[C@]1(OC(C)=O)CO[C@@H]1C[C@@H]2O [Taxol, paclitaxel]
induction of apoptosis with exposure of C35 on the cell surface (21MT1 tumor cells): induces apoptosis
Maximum Tolerated Dose [2, 10]: No toxicity^2

Molecule: CCc1c2c(nc3ccc(OC(=O)N4CCC(N5CCCCC5)CC4)cc13)-c1cc3c(c(=O)n1C2)COC(=O)[C@]3(O)CC [Irinotecan]
Maximum Tolerated Dose [2, 11]: 15 mg/kg

epitope specificity [5]: residues 105-115
B1: 1B3: mouse monoclonal anti-C35 antibody from hybridoma 1B3, gamma1 isotype, kappa light chain; VH SEQ ID NO:8, VK SEQ ID NO:10 (antibody, listed as Mus sp., V domains shown)
VH: EVQLQESGPSLVKPSQTLSLTCSVTGDSITSGYWNWIRKFPGNKLEYVGYISYSGGTYYNPSLKSRISITRDTSKNHYYLQLNSVTTEDTATYYCARGAYYGGAFFPYFDVWGAGTTVTVSS
VL: DVQITQSPSFLAASPGETITINCRASKYISKHLVWYQEKPGETKKLLIYSGSTLQSGLPSRFSGSGSGTDFTLTISSLEPEDFAMYYCQQHNEYPLTFGAGTKLELK
epitope comparison by competition (C35 protein [3]): bind different epitopes of the C35 protein
binding to recombinant C35 protein (C35 protein [4]): specifically bind recombinant C35 protein

staining of approximately 15 kDa band B (lacks C35 residues 105-115) [6]: not
staining of approximately 8 kDa band C (in addition lacks residues 53-104) [7]: neither
B2: MAb11 (1B3): 1B3 anti-C35 immunoglobulin variable regions linked to human constant regions (antibody, V domains shown)
VH: B1 VH
VL: B1 VL

B3: C35 protein: control C35 protein coated at 2 μg/ml, positive control of the peptide ELISA (protein, UniProt Q9BRT3 2-112, looked up)
Migration and invasion …: SGEPGQTSVAPPPEEVEPGSGVRIVVEYCEPCGFEATYLELASAVKEQYPGIEIESRLGGTGAFEIEINGQLVFSKLENGGFPYEKDLIEAIRRASNGETLEKITNSRPPC
Absorbance @ 450-570 nm [1, 8]: 3.765
Absorbance @ 450-570 nm [1, 9]: 3.5225
